From patent US20260042762A1 (Kymera Therapeutics, Inc., priority 2018, published 2026)

Biological target: T1, MerTK (Homo sapiens, UniProt Q12866)
T1 construct: endogenous in cells; host or cells: Jurkat cells
T1 sequence (Q12866 21-999): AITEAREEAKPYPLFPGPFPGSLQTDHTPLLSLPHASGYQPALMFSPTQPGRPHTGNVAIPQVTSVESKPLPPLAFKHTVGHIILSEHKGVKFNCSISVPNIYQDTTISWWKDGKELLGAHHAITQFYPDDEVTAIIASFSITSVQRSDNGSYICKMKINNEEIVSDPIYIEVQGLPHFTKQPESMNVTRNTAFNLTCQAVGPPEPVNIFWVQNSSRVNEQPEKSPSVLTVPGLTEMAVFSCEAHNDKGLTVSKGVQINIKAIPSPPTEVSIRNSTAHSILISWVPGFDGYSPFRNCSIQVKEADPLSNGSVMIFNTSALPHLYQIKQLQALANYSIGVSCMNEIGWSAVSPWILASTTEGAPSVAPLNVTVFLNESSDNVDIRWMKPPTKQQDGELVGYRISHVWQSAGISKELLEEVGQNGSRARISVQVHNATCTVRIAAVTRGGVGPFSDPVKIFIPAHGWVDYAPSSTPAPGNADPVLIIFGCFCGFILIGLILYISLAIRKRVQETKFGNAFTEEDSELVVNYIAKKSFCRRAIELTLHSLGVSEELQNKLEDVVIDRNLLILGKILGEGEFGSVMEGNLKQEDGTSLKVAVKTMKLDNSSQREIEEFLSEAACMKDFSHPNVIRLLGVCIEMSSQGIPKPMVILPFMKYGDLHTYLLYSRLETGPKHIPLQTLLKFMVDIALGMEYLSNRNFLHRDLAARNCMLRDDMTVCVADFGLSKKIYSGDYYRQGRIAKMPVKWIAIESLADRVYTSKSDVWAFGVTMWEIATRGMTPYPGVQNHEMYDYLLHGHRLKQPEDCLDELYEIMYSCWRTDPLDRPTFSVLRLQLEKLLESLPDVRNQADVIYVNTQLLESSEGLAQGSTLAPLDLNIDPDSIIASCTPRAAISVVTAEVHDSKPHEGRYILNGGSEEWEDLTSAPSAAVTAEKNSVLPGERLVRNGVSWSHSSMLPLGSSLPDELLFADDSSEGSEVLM
Assay: MerTk degradation in Jurkat cells (Western blot)
Format: cell-based
Details: Jurkat, 4 h, 0.001-1 μM, 4 hour-incubation at 37° C., read-out: Jurkat Max % MerTK Degradation
Method in brief: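 MerTK degradation was read by near-infrared Western blot, normalized to actin, in BCA-quantified lysates of Jurkat cells exposed to 0.001-1 μM compound for 4 h at 37 °C.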

| SMILES | Dmax |
| --- | --- |
| Cn1c(=O)n([C@H]2CCC(=O)NC2=O)c2ccc(CCCOCCN3CCC(N4CCN(Cc5ccc(-c6cn([C@H]7CC[C@H](O)CC7)c7nc(NCCC(F)(F)F)ncc67)cc5)CC4)CC3)cc21 [I-94, 3-(3-methyl-2-oxo-5-[3-[2-(4-[4-[(4-[7-[trans-4-hydroxycyclohexyl]-2-[(3,3,3-trifluoropropyl)amino]-7H-pyrrolo[2,3-d]pyrimidin-5-yl]phenyl)methyl]piperazin-1-yl]piperidin-1-yl)ethoxy]propyl]-2,3-dihydro-1H-1,3-benzodiazol-1-y1)piperidine-2,6-dione; formic acid] | > 50% |
| Cn1c(=O)n([C@H]2CCC(=O)NC2=O)c2ccc(CCCC3CCN(C4CCN(Cc5ccc(-c6cn([C@H]7CC[C@H](O)CC7)c7nc(NCCC(F)(F)F)ncc67)cc5)CC4)CC3)cc21 [I-145, 3-[3-methyl-2-oxo-5-(3-[1-[(4-[7-[trans-4-hydroxycyclohexyl]-2-[(3,3,3-trifluoropropyl)amino]pyrrolo[2,3-d]pyrimidin-5-yl]phenyl)methyl]-[1,4-bipiperidin]-4-yl]propyl)-1,3-benzodiazol-1-y1]piperidine-2,6-dione; formic acid] | > 50% |
| CCCCNc1ncc2c(-c3ccc(S(=O)(=O)N4CCN(CCOCCOCCOCCOCCNc5cccc6c5n(C)c(=O)n6C5CCC(=O)NC5=O)CC4)cc3)cn([C@H]3CC[C@H](O)CC3)c2n1 (relative stereo) [I-35, Trans-3-[4-[15-(4-[4-[2-(butylamino)-7-[-4-hydroxycyclohexyl]-7H-pyrrolo[2,3-d]pyrimidin-5-yl]benzenesulfonyl]piperazin-1-yl)-4,7,10,13-tetraoxa-1-azapentadecan-1-yl]-3-methyl-2-oxo-2,3-dihydro-1H-1,3-benzodiazol-1-yl]piperidine-2,6-dione] | > 50% |
| Cn1c(=O)n([C@H]2CCC(=O)NC2=O)c2ccc(COCCCN3CCN(Cc4ccc(-c5cn([C@H]6CC[C@H](O)CC6)c6nc(NCCC(F)(F)F)ncc56)cc4)CC3)cc21 [I-149, 3-[3-methyl-2-oxo-5-[(3-[4-[(4-[7-[trans-4-hydroxycyclohexy1]-2-[(3,3,3-trifluoropropyl)amino]pyrrolo[2,3-d]pyrimidin-5-yl]phenyl)methyl]piperazin-1-yl]propoxy)methyl]-1,3-benzodiazol-1-y1]piperidine-2,6-dione; formic acid] | > 50% |
| CN(C)c1cccc2c(S(=O)(=O)Nc3cccc(-c4cnc(NCCOCCOCCOCCN5CCN(Cc6ccc(-c7cn([C@H]8CC[C@H](O)CC8)c8nc(NCCC(F)(F)F)ncc78)cc6)CC5)nc4N4CCC(c5ccccc5)C4C(=O)O)c3)cccc12 (stereo partly drawn) [I-169, 1-(5-[3-[5-(dimethylamino)naphthalene-1-sulfonamido]phenyl]-2-(12-[4-[(4-[7-[trans-4-hydroxycyclohexyl]-2-[(3,3,3-trifluoropropyl)amino]pyrrolo[2,3-d]pyrimidin-5-yl]phenyl)methyl]piperazin-1-yl]-4,7,10-trioxa-1-azadodecan-1-yl)pyrimidin-4-yl)-3-phenylpyrrolidine-2-carboxylic acid] | < 20% |
| O=C1CC[C@H](n2c3ccc(NCCOCCOCCN4CCN(Cc5ccc(-c6cn([C@H]7CC[C@H](O)CC7)c7nc(NCCC(F)(F)F)ncc67)cc5)CC4)cc3c3cccnc32)C(=O)N1 [I-133, 3-[6-([2-[2-(2-[4-[(4-[7-[trans-4-hydroxycyclohexyl]-2-[(3,3,3-trifluoropropyl)amino]pyrrolo[2,3-d]pyrimidin-5-yl]phenyl)methyl]piperazin-1-yl]ethoxy)ethoxy]ethyl]amino)pyrido[2,3-b]indol-9-yl]piperidine-2,6-dione; formic acid] | > 50% |
| CCCCNc1ncc2c(-c3ccc(CN4CCN(CCCc5ccc6c(c5)n(C)c(=O)n6[C@H]5CCC(=O)NC5=O)CC4)cc3)cn([C@H]3CC[C@H](O)CC3)c2n1 [I-44, 3-(5-[3-[4-([4-[2-(Butylamino)-7-[trans-4-hydroxycyclohexyl]-7H-pyrrolo[2,3-d]pyrimidin-5-yl]phenyl]methyl)piperazin-1-yl]propyl]-3-methyl-2-oxo-2,3-dihydro-1H-1,3-benzodiazol-1-y1)piperidine-2,6-dione; formic acid] | < 20% |
| Cn1c(=O)n([C@H]2CCC(=O)NC2=O)c2ccc(CCCOCCOCC3CCN(C[C@H]4CC[C@H](c5cn([C@H]6CC[C@H](O)CC6)c6nc(NCCC(F)(F)F)ncc65)CC4)CC3)cc21 [I-172, 3-[3-methyl-2-oxo-5-(3-[2-[(1-[[trans-4-[7-[trans-4-hydroxycyclohexy1]-2-[(3,3,3-trifluoropropyl)amino]pyrrolo[2,3-d]pyrimidin-5-yl]cyclohexyl]methyl]piperidin-4-yl)methoxy]ethoxy]propy1)-1,3-benzodiazol-1-yl]piperidine-2,6-dione] | > 50% |
| CCC[C@@H](C)Nc1ncc2c(n1)n([C@H]1CC[C@H](O)CC1)cc2[C@H]1CC[C@@H](CN2CCN(CCCO[C@H]3CCN(Cc4ccc5c(c4)n(C)c(=O)n5C4CCC(=O)NC4=O)C3)CC2)CC1 (stereo partly drawn) [I-219, 3-(3-methyl-2-oxo-5-[[(3S)-3-[3-(4-[[trans-4-[2-[(2S)-pentan-2-ylamino]-7-[trans-4-hydroxycyclohexyl]pyrrolo[2,3-d]pyrimidin-5-yl]cyclohexyl]methyl]piperazin-1-y1)propoxy]pyrrolidin-1-yl]methyl]-1,3-benzodiazol-1-yl)piperidine-2,6-dione; tris(formic acid)] | > 50% |
| CCC[C@H](C)Nc1ncc2c(n1)n([C@H]1CC[C@H](O)CC1)cc2[C@H]1CC[C@H](CN2CCN(CCCOC3CN(Cc4ccc5c(c4)n(C)c(=O)n5C4CCC(=O)NC4=O)C3)CC2)CC1 (stereo partly drawn) [I-223, 3-[3-methyl-2-oxo-5-([3-[3-(4-[[trans-4-[2-[(2S)-pentan-2-ylamino]-7-[trans-4-hydroxycyclohexyl]pyrrolo[2,3-d]pyrimidin-5-yl]cyclohexyl]methyl]piperazin-1-y1)propoxy]azetidin-1-yl]methyl)-1,3-benzodiazol-1-yl]piperidine-2,6-dione] | 20 to 50% |
| CCCCNc1ncc2c(-c3ccc(C(C)N4CCN(CCCOCCCc5ccc6c(c5)n(C)c(=O)n6C5CCC(=O)NC5=O)CC4)cc3)cn([C@H]3CC[C@H](O)CC3)c2n1 (stereo partly drawn) [I-75, 3-[5-(3-[3-[4-(1-[4-[2-(butylamino)-7-[trans-4-hydroxycyclohexy1]-7H-pyrrolo[2,3-d]pyrimidin-5-yl]phenyl]ethyl)piperazin-1-yl]propoxy]propyl)-3-methyl-2-oxo-2,3-dihydro-1H-1,3-benzodiazol-1-yl]piperidine-2,6-dione; formic acid] | > 50% |
| Cn1c(=O)n(C2CCC(=O)NC2=O)c2ccc(CCCOCCN3CCC(N4CCN(Cc5ccc(-c6cn([C@H]7CC[C@H](O)CC7)c7nc(NCCC(F)(F)F)ncc67)cc5)CC4)C3)cc21 (stereo partly drawn) [I-93, 3-(3-methyl-2-oxo-5-[3-[2-(3-[4-[(4-[7-[trans-4-hydroxycyclohexy1]-2-[(3,3,3-trifluoropropyl)amino]-7H-pyrrolo[2,3-d]pyrimidin-5-yl]phenyl)methyl]piperazin-1-yl]pyrrolidin-1-y1)ethoxy]propyl]-2,3-dihydro-1H-1,3-benzodiazol-1-yl)piperidine-2,6-dione; formic acid] | > 50% |
| O=C(c1ccc(CNCc2ccc(-c3ccc4c(cnn4CC4CC4)c3)cc2)cc1)N1CCC(C2CCN(Cc3ccc(-c4cn([C@H]5CC[C@H](O)CC5)c5nc(NCCC(F)(F)F)ncc45)cc3)CC2)CC1 [I-202, (4-(((4-(1-(cyclopropylmethyl)-1H-indazol-5-yl)benzyl)amino)methyl)phenyl)(1′-(4-(7-(trans-4-hydroxycyclohexyl)-2-((3,3,3-trifluoropropyl)amino)-7H-pyrrolo[2,3-d]pyrimidin-5-yl)benzyl)-[4,4′-bipiperidin]-1-yl)methanone; formic acid] | < 20% |
| Cn1c(=O)n([C@H]2CCC(=O)NC2=O)c2ccc(CCCOCCCOCCN3CCN(Cc4ccc(-c5cn([C@H]6CC[C@H](O)CC6)c6nc(NCC7CC7)ncc56)cc4)CC3)cc21 [I-72, 3-(5-[3-[3-(2-[4-[(4-[2-[(cyclopropylmethyl)amino]-7-[trans-4-hydroxycyclohexy1]-7H-pyrrolo[2,3-d]pyrimidin-5-yl]phenyl)methyl]piperazin-1-yl]ethoxy)propoxy]propy1]-3-methyl-2-oxo-2,3-dihydro-1H-1,3-benzodiazol-1-yl)piperidine-2,6-dione; formic acid] | > 50% |
